Measured values taken from patent US10604741B2, “Compositions and methods for enhancing virus replication” (TURNSTONE LIMITED PARTNERSHIP, priority 2013, dated 2020).

Legend:
VSVΔ51 in 786-0 cells [1] = assay type: cell-based, human; conditions: 24 hours
VSVΔ51 in 786-0 cells [2] = assay type: cell-based, human

| Molecule | FGF2-enhancement of virus replication at different MOIs (VSVΔ51 in 786-0 cells [1]) | effect on FGF2-induced enhancement of virus replication (VSVΔ51 in 786-0 cells [2]) |
| --- | --- | --- |
| FGF2: recombinant human FGF2 protein; amino acid sequence shown in SEQ ID NO: 9 | independent of the MOIs used |  |
| CCN(CC)CCCCNc1ncc2cc(-c3cc(OC)cc(OC)c3)c(NC(=O)NC(C)(C)C)nc2n1 [PD173074] |  | reduces FGF2-induced enhancement of virus replication |
